Like-named read-outs stand apart in the source and are kept apart here.
Biological target: T1, human RXFP1 (Homo sapiens, UniProt Q9HBX9)
T1 sequence (Q9HBX9 1-757): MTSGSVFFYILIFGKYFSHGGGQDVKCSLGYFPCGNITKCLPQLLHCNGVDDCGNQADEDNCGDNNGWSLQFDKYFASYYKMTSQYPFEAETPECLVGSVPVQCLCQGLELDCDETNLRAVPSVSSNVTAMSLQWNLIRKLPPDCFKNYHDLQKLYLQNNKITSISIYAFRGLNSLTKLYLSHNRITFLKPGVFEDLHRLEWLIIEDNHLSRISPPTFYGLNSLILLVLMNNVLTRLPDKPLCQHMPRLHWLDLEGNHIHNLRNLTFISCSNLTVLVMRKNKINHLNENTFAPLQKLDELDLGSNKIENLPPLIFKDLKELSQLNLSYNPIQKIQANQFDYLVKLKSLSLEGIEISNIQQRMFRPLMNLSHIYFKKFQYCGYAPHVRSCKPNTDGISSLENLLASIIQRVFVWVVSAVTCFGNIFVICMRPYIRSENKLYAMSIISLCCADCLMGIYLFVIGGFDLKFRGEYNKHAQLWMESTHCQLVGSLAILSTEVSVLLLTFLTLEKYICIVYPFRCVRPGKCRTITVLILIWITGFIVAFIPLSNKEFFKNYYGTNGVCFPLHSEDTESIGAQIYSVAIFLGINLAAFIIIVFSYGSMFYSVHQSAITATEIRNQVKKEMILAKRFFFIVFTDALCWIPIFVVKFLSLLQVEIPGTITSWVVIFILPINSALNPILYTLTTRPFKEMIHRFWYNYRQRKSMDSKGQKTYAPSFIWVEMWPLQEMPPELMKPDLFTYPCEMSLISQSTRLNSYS
Assay: RXFP1 Hu cAMP (Test A)
Format: cell-based
Design: expressed in transfected cells; host or cells: Jump-In T-REx CHO-K1 cells (ThermoFisher), induced with 10 ng/ml doxycycline for 24 h
Description: To screen for modulators of hRXFP1, an assay identifying compounds that stimulate cAMP production via the Gs-coupled hRXFP1 receptor was used. cAMP HiRange HTRF kit (available from CisBio Bioassays, France; catalogue number 62AM6PEJ) was employed in large according to manufacturer's recommendations for detection of cAMP. The HTRF method is a competitive immunoassay between native cAMP produced by cells and cAMP labeled with the dye d2. The tracer binding is visualized with a cryptate labeled antibody for cAMP and the signal is thus inversely proportional to the amount of produced cAMP.
Cells: Jump-In™ T-REx™ CHO-K1 Cells (ThermoFisher) stably transfected with human RXFP1 was employed. Cells were induced to express human RXFP1 by treatment with 10 ng/ml doxycycline for 24 h. Cells were then cryopreserved for long term storage.
HTRF detection reagents: cAMP-d2 and anti-cAMP cryptate reconstituted according to CisBio instructions were diluted 1:40 in lysis buffer provided with the HTRF-kit.
3. 4 μL assay buffer with 1 mM IBMX (0.5 mM final concentration) to block phosphodiesterases was added with Multidrop Combi (ThermoFisher).
6. 4 μL cAMP-d2 in lysis buffer was added with Multidrop Combi.
7. 4 μL anti-cAMP cryptate in lysis buffer was added with Multidrop Combi
8. 2 h incubation at room temperature
Using a cAMP standard curve, HTRF data was converted to amount cAMP produced in the samples which was subsequentially used for calculation of concentration responses. Concentration response data were fitted with a four parameter logistic fit, the Hill equation. The results from the assay are reported in Table 36 as EC50 (μM) and Sinf (%).
Where the assay was run multiple times for the same compound, the geometric mean is reported.
Sinf is the fitted activity level, efficacy, at infinite concentration of test compound. To facilitate comparison of efficacy data, efficacy was normalized to % effect of the response stimulated by a saturating concentration of relaxin (1 nM). Where the assay was run multiple times for the same compound, the arithmetic mean is reported.

[1] = RXFP1 Hu cAMP, read-out: Test A EC50

Test A Sinf (RXFP1 Hu cAMP) | EC50 [1] | Compound | EC50 (Test A EC50, RXFP1 Hu cAMP)
104% | 0.54 µM | COc1cc(F)c(O[C@H]2CC[C@@](C)(C(=O)O)CC2)cc1C(=O)N[C@@H]1C[C@H](OC)C[C@@H]1C(=O)Nc1cccc(S(=O)(=O)C(F)(F)F)c1 (stereo in doubt) [Example 335] | –
97% | 0.058 µM | COc1cc(-c2cc(C(=O)N[C@@H]3[C@H]4CC[C@H](C4)[C@@H]3C(=O)Nc3cccc(S(=O)(=O)C(F)(F)F)c3)c(OC)cc2F)ccc1CCC(=O)O [Example 259, 3-(2′-Fluoro-3,4′-dimethoxy-5′-(((1S,2R,3S,4R)-3-((3-((trifluoromethyl)sulfonyl)phenyl)carbamoyl)bicyclo[2.2.1]heptan-2-yl)carbamoyl)-[1,1′-biphenyl]-4-yl)propanoic acid] | –
119% | 0.44 µM | COc1cc(C#N)c(O[C@H]2CC[C@@](C)(C(=O)O)CC2)cc1C(=O)Nc1cc(C)ccc1C(=O)N[C@H]1C[C@@H](C)C1 [Example 171] | –
101% | 2 µM | COc1cc(F)c(O[C@H]2CC[C@@](C)(C(=O)O)CC2)cc1C(=O)N[C@@H]1[C@H]2CC[C@H](C2)[C@@H]1C(=O)N[C@@H](C)C(C)(C)C#N [Example 616] | –
129% | – | COc1cc(F)c(OCCCC(=O)O)cc1C(=O)N[C@H]1[C@@H](C(=O)Nc2cccc(S(=O)(=O)C(F)(F)F)c2)[C@@H]2C=C[C@H]1C2 (racemic) [Example 456] | –
125% | 0.0011 µM | COc1cc(F)c(O[C@H]2CC[C@@](C)(C(=O)O)CC2)cc1C(=O)N[C@@H]1[C@@H]2CC[C@@H](C2)[C@@H]1C(=O)Nc1ccc(F)c(S(F)(F)(F)(F)F)c1 (racemic) [Example 371] | –
– | > 40 µM | COc1cc(F)c(O[C@H]2CC[C@@](CO)(C(=O)O)CC2)cc1C(=O)NC1COCC1C(=O)NCC1(C)CCC1 (single isomer, unassigned) [Example 580, (1R,4s)-4-(2-Fluoro-4-methoxy-5-(((3S*,4R*)-4-(((1-methylcyclobutyl)methyl)carbamoyl)tetrahydrofuran-3-yl)carbamoyl)phenoxy)-1-(hydroxymethyl)cyclohexane-1-carboxylic acid] | –
96% | – | COC[C@]1(C(=O)O)CC[C@@H](Oc2cc(C(=O)N[C@@H]3[C@H]4CC[C@H](C4)[C@@H]3C(=O)NCC(C)(C)C)c(OC)cc2F)CC1 [Example 481] | –
91% | 0.78 µM | COc1cc(C#N)c(O[C@H]2CC[C@@](C)(C(=O)O)CC2)cc1C(=O)N[C@@H]1CCCC[C@@H]1C(=O)NCC1(C)CCC1 [Example 361] | –
147% | 0.12 µM | CCC(CC)CNC(=O)c1ccc(C)cc1NC(=O)c1cc(O[C@H]2CC[C@@](C)(C(=O)O)CC2)c(C#N)cc1OC [Example 167] | –
– | > 40 µM | COc1cc(F)c(OC2CCC(CO)(C(=O)O)CC2)cc1C(=O)N[C@H]1[C@@H](C(=O)NCC2(C)CCC2)[C@H]2CC[C@@H]1O2 (relative stereo) [Example 533, (1R,4s)-4-(2-Fluoro-4-methoxy-5-(((1S*,2S*,3R*,4R*)-3-(((1-methylcyclobutyl)methyl)carbamoyl)-7-oxabicyclo[2.2.1]heptan-2-yl)carbamoyl)phenoxy)-1-(hydroxymethyl)cyclohexane-1-carboxylic acid] | –
104% | 4.1 µM | COc1cc(F)c(O[C@H]2CC[C@@](CO)(C(=O)O)CC2)cc1C(=O)N[C@@H]1C[C@@H](OC)C[C@@H]1C(=O)NCC(C)(C)C (racemic) [Example 338] | –
96% | 0.17 µM | COc1cc(F)c(O[C@H]2CC[C@@](C)(C(=O)O)CC2)cc1C(=O)NC1C2CCC(O2)C1C(=O)NCC1(C)CCC1 (single isomer, unassigned) [Example 530, (1R,4s)-4-(2-Fluoro-4-methoxy-5-(((1S*,2S*,3R*,4R*)-3-(((1-methylcyclobutyl)methyl)carbamoyl)-7-oxabicyclo[2.2.1]heptan-2-yl)carbamoyl)phenoxy)-1-methylcyclohexane-1-carboxylic acid] | –
– | > 40 µM | COc1cc(F)c(-c2ccccc2C(=O)O)cc1C(=O)N[C@H]1[C@@H](C(=O)Nc2cccc(S(=O)(=O)C(F)(F)F)c2)[C@@H]2C=C[C@H]1C2 (racemic) [Example 273, rac-2′-Fluoro-4′-methoxy-5′-(((1R,2R,3S,4S)-3-((3-((trifluoromethyl)sulfonyl)phenyl)carbamoyl)bicyclo[2.2.1]hept-5-en-2-yl)carbamoyl)-[1,1′-biphenyl]-2-carboxylic acid] | –
95% | – | COc1cc(C#N)c(O[C@H]2CC[C@@](C)(C(=O)O)CC2)cc1C(=O)N[C@@H]1[C@H]2CC[C@H](C2)[C@@H]1C(=O)N[C@H](C)C1CCCCC1 [Example 120] | –
102% | 0.017 µM | COc1cc(F)c(O[C@H]2CC[C@@](C)(C(=O)O)CC2)cc1C(=O)N[C@H]1[C@H]2CC[C@H](CC2)[C@H]1C(=O)NCC1(C)CCC1 (racemic) [Example 470, (1R,4s)-4-(2-Fluoro-4-methoxy-5-(((2SR,3RS)-3-(((1-methylcyclobutyl)methyl)carbamoyl)bicyclo[2.2.2]octan-2-yl)carbamoyl)phenoxy)-1-methylcyclohexane-1-carboxylic acid] | –
– | > 40 µM | COc1cc(F)c(-c2ccc(C(=O)O)cc2)cc1C(=O)N[C@H]1[C@@H]2CC[C@@H](C2)[C@H]1C(=O)Nc1ccc(F)c(C(F)(F)F)c1 (single isomer, unassigned) [Example 590] | –
91% | 0.16 µM | COc1cc(F)c(OCCCCCC(=O)O)cc1C(=O)N[C@H]1[C@@H](C(=O)Nc2cccc(S(=O)(=O)C(F)(F)F)c2)[C@@H]2C=C[C@H]1C2 (racemic) [Example 455] | –
100% | 0.098 µM | COC[C@]1(C(=O)O)CC[C@H](Oc2cc(C(=O)N[C@@H]3[C@@H]4CC[C@@H](C4)[C@@H]3C(=O)Nc3cccc(S(=O)(=O)C(F)(F)F)c3)c(OC)cc2F)CC1 [Example 480] | –
81% | 0.3 µM | COc1cc(F)c(OC2CCC(C)(CC(=O)O)CC2)cc1C(=O)NC1C2CCC(C2)C1C(=O)NCC1(C)CCC1 [Example 476, 2-((1S,4s)-4-(2-Fluoro-4-methoxy-5-(((1S,2R,3S,4R)-3-(((1-methylcyclobutyl)methyl)carbamoyl)bicyclo[2.2.1]heptan-2-yl)carbamoyl)phenoxy)-1-methylcyclohexyl)acetic acid] | –

Compound | Test A Sinf (RXFP1 Hu cAMP) | EC50 [1] | EC50 (Test A EC50, RXFP1 Hu cAMP)
(1R,4s)-4-(2-fluoro-5-(((1S*,2S*,3R*,4R*)-3-((4-fluoro-3-(pentafluoro-λ6-sulfaneyl)phenyl)carbamoyl)bicyclo[2.2.1]heptan-2-yl)carbamoyl)-4-methoxyphenoxy)-1-methylcyclohexane-1-carboxylic acid [Example 521] | 99% | – | –
COc1cc(F)c(O[C@H]2CC[C@@](C)(C(=O)O)CC2)cc1C(=O)N[C@@H]1[C@@H]2CC[C@@H](C2)[C@@H]1C(=O)NCC(C)(C)C [Example 370] | 102% | – | 0.024 µM
COc1cc(C#N)c(O[C@H]2CC[C@@](C)(C(=O)O)CC2)cc1C(=O)N[C@H]1[C@@H](C(=O)NCC2(C)CCC2)[C@H]2CC[C@@H]1N2C(=O)OC(C)(C)C (racemic) [Example 334] | 96% | – | 0.0043 µM
(1R,4s)-4-(2-fluoro-4-methoxy-5-(((3S*,4S*)-3-((3-((trifluoromethyl)sulfonyl)phenyl)carbamoyl)tetrahydro-2H-pyran-4-yl)carbamoyl)phenoxy)-1-methylcyclohexane-1-carboxylic acid [Example 519] | 101% | – | –
